Results published in ChEMBL document CHEMBL1201862, “PubChem BioAssay data set” (2004).
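1) Cells in 96-well plates. 2) Compound, 48 h, 5 concentrations. 3) Linear interpolation between surrounding doses. 4) Unreached endpoint = highest concentration. GI50 marks 50% less growth.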 Calls of active or inactive are those of the source. Cut-off read from the data, not from the text of the source: active = GI50 up to about 1.1 µM and inactive = higher.

Legend:
Experiment in all cases: DTP human tumour cell line panel, 48 h
786-0 = tested on: 786-0
A549 = tested on: A549
BT-549 = tested on: BT-549
CCRF-CEM = tested on: CCRF-CEM
COLO 205 = tested on: COLO 205
DU-145 = tested on: DU-145
EKVX = tested on: EKVX
HCC 2998 = tested on: HCC 2998
HCT-116 = tested on: HCT-116
HCT-15 = tested on: HCT-15
HL-60 = tested on: HL-60
HOP-62 = tested on: HOP-62
HT-29 = tested on: HT-29
IGROV-1 = tested on: IGROV-1
K562 = tested on: K562
KM12 = tested on: KM12
LOX IMVI = tested on: LOX IMVI
M14 = tested on: M14
MCF7 = tested on: MCF7
MDA-MB-231 = tested on: MDA-MB-231
MDA-MB-435 = tested on: MDA-MB-435
MDA-N = tested on: MDA-N
MOLT-4 = tested on: MOLT-4
NCI-H23 = tested on: NCI-H23
NCI-H460 = tested on: NCI-H460
NCI-H522 = tested on: NCI-H522
OVCAR-3 = tested on: OVCAR-3
OVCAR-4 = tested on: OVCAR-4
OVCAR-5 = tested on: OVCAR-5
OVCAR-8 = tested on: OVCAR-8
PC-3 = tested on: PC-3
SF-268 = tested on: SF-268
SF-295 = tested on: SF-295
SF-539 = tested on: SF-539
SK-MEL-28 = tested on: SK-MEL-28
SK-MEL-5 = tested on: SK-MEL-5
SK-OV-3 = tested on: SK-OV-3
SN12C = tested on: SN12C
SNB-19 = tested on: SNB-19
SNB-75 = tested on: SNB-75
SW-620 = tested on: SW-620
T47D = tested on: T47D
TK-10 = tested on: TK-10
U-251 = tested on: U-251
UACC-257 = tested on: UACC-257
UACC-62 = tested on: UACC-62
UO-31 = tested on: UO-31
A498 = tested on: A498
ACHN = tested on: ACHN
CAKI-1 = tested on: CAKI-1
HOP-92 = tested on: HOP-92
NCI-H226 = tested on: NCI-H226
NCI/ADR-RES = tested on: NCI/ADR-RES
RPMI-8226 = tested on: RPMI-8226
RXF 393 = tested on: RXF 393
SK-MEL-2 = tested on: SK-MEL-2
SR = tested on: SR
Malme-3M = tested on: Malme-3M

For `CCSCCCSCCSCC`, the GI50 (786-0) was > 100 µM (inactive), the GI50 (A549) was > 100 µM (inactive) and the GI50 (BT-549) was > 100 µM (inactive). The GI50 (CCRF-CEM) was > 100 µM (inactive), the GI50 (COLO 205) was > 100 µM (inactive) and the GI50 (DU-145) was > 100 µM (inactive). The GI50 (EKVX) was > 100 µM (inactive), the GI50 (HCC 2998) was > 100 µM (inactive) and the GI50 (HCT-116) was > 100 µM (inactive). For the same compound, the GI50 (HCT-15) was greater than 100 µM, the GI50 (HL-60) was 26.4 µM (inactive) and the GI50 (HOP-62) was > 100 µM (inactive). For the same compound, the GI50 (HT-29) was > 100 µM (inactive), the GI50 (IGROV-1) was > 100 µM (inactive) and the GI50 (K562) was > 100 µM (inactive). The GI50 (KM12) was > 100 µM (inactive), the GI50 (LOX IMVI) was > 100 µM (inactive) and the GI50 (M14) was > 100 µM (inactive). For the same compound, the GI50 (MCF7) was > 100 µM (inactive), the GI50 (MDA-MB-231) was > 100 µM (inactive) and the GI50 (MDA-MB-435) was > 100 µM (inactive). For the same compound, the GI50 (MDA-N) was > 100 µM (inactive), the GI50 (MOLT-4) was 17.2 µM (inactive) and the GI50 (NCI-H23) was > 100 µM (inactive). For the same compound, the GI50 (NCI-H460) was > 100 µM (inactive), the GI50 (NCI-H522) was > 100 µM (inactive) and the GI50 (OVCAR-3) was > 100 µM (inactive). For the same compound, the GI50 (OVCAR-4) was 81.5 µM (inactive), the GI50 (OVCAR-5) was > 100 µM (inactive) and the GI50 (OVCAR-8) was > 100 µM (inactive). For the same compound, the GI50 (PC-3) was > 100 µM (inactive), the GI50 (SF-268) was > 100 µM (inactive) and the GI50 (SF-295) was > 100 µM (inactive). The GI50 (SF-539) was > 100 µM (inactive), the GI50 (SK-MEL-28) was > 100 µM (inactive) and the GI50 (SK-MEL-5) was > 100 µM (inactive). For the same compound, the GI50 (SK-OV-3) was > 100 µM (inactive), the GI50 (SN12C) was > 100 µM (inactive) and the GI50 (SNB-19) was > 100 µM (inactive). The GI50 (SNB-75) was > 100 µM (inactive), the GI50 (SW-620) was > 100 µM (inactive) and the GI50 (T47D) was > 100 µM (inactive). The GI50 (TK-10) was > 100 µM (inactive), the GI50 (U-251) was > 100 µM (inactive) and the GI50 (UACC-257) was > 100 µM (inactive). For the same compound, the GI50 (UACC-62) was > 100 µM (inactive) and the GI50 (UO-31) was > 100 µM (inactive).
With `Cc1ccc(S(=O)(=O)OI(O)CC(F)(F)F)cc1` the GI50 (786-0) was > 100 µM (inactive), the GI50 (A498) was > 100 µM (inactive) and the GI50 (A549) was > 100 µM (inactive). The GI50 (ACHN) was > 100 µM (inactive), the GI50 (BT-549) was > 100 µM (inactive) and the GI50 (CAKI-1) was > 100 µM (inactive). The GI50 (CCRF-CEM) was > 100 µM (inactive), the GI50 (COLO 205) was > 100 µM (inactive) and the GI50 (DU-145) was > 100 µM (inactive). For the same compound, the GI50 (EKVX) was > 100 µM (inactive), the GI50 (HCC 2998) was > 100 µM (inactive) and the GI50 (HCT-116) was > 100 µM (inactive). The GI50 (HCT-15) was greater than 100 µM, the GI50 (HL-60) was > 100 µM (inactive) and the GI50 (HOP-62) was > 100 µM (inactive). The GI50 (HOP-92) was > 100 µM (inactive), the GI50 (HT-29) was > 100 µM (inactive) and the GI50 (IGROV-1) was > 100 µM (inactive). The GI50 (K562) was > 100 µM (inactive), the GI50 (KM12) was > 100 µM (inactive) and the GI50 (LOX IMVI) was > 100 µM (inactive). For the same compound, the GI50 (M14) was > 100 µM (inactive), the GI50 (MCF7) was > 100 µM (inactive) and the GI50 (MDA-MB-231) was > 100 µM (inactive). For the same compound, the GI50 (MDA-MB-435) was > 100 µM (inactive), the GI50 (MOLT-4) was > 100 µM (inactive) and the GI50 (NCI-H226) was > 100 µM (inactive). The GI50 (NCI-H23) was > 100 µM (inactive), the GI50 (NCI-H460) was > 100 µM (inactive) and the GI50 (NCI-H522) was 91.8 µM (inactive). The GI50 (NCI/ADR-RES) was > 100 µM (inactive), the GI50 (OVCAR-3) was > 100 µM (inactive) and the GI50 (OVCAR-4) was > 100 µM (inactive). For the same compound, the GI50 (OVCAR-5) was > 100 µM (inactive), the GI50 (OVCAR-8) was > 100 µM (inactive) and the GI50 (PC-3) was > 100 µM (inactive). For the same compound, the GI50 (RPMI-8226) was > 100 µM (inactive), the GI50 (RXF 393) was > 100 µM (inactive) and the GI50 (SF-268) was > 100 µM (inactive). The GI50 (SF-295) was > 100 µM (inactive), the GI50 (SF-539) was > 100 µM (inactive) and the GI50 (SK-MEL-28) was > 100 µM (inactive). For the same compound, the GI50 (SK-MEL-2) was > 100 µM (inactive), the GI50 (SK-MEL-5) was > 100 µM (inactive) and the GI50 (SK-OV-3) was > 100 µM (inactive). The GI50 (SN12C) was > 100 µM (inactive), the GI50 (SNB-75) was > 100 µM (inactive) and the GI50 (SR) was > 100 µM (inactive). The GI50 (SW-620) was > 100 µM (inactive), the GI50 (T47D) was > 100 µM (inactive) and the GI50 (TK-10) was > 100 µM (inactive). The GI50 (U-251) was > 100 µM (inactive), the GI50 (UACC-257) was > 100 µM (inactive) and the GI50 (UACC-62) was > 100 µM (inactive). The GI50 (UO-31) was > 100 µM (inactive).
With `O=C1C(Cl)=C(NCCc2ccc(O)cc2)C(=O)c2c(O)ccc(O)c21` the GI50 (786-0) was 9.46 µM (inactive), the GI50 (A549) was > 10 µM (inactive) and the GI50 (ACHN) was > 10 µM (inactive). For the same compound, the GI50 (BT-549) was > 10 µM (inactive), the GI50 (CAKI-1) was > 10 µM (inactive) and the GI50 (CCRF-CEM) was 4.34 µM (inactive). For the same compound, the GI50 (COLO 205) was > 10 µM (inactive), the GI50 (DU-145) was > 10 µM (inactive) and the GI50 (EKVX) was > 10 µM (inactive). The GI50 (HCC 2998) was > 10 µM (inactive), the GI50 (HCT-116) was 8.2 µM (inactive) and the GI50 (HCT-15) was greater than 10 µM. For the same compound, the GI50 (HL-60) was 5.42 µM (inactive), the GI50 (HOP-62) was 6.56 µM (inactive) and the GI50 (HOP-92) was > 10 µM (inactive). For the same compound, the GI50 (HT-29) was 4.27 µM (inactive), the GI50 (IGROV-1) was > 10 µM (inactive) and the GI50 (K562) was > 10 µM (inactive). For the same compound, the GI50 (KM12) was 7.28 µM (inactive), the GI50 (LOX IMVI) was 7.66 µM (inactive) and the GI50 (M14) was > 10 µM (inactive). For the same compound, the GI50 (MCF7) was 4.13 µM (inactive), the GI50 (MDA-MB-231) was > 10 µM (inactive) and the GI50 (MDA-MB-435) was 4.36 µM (inactive). The GI50 (MDA-N) was > 10 µM (inactive), the GI50 (MOLT-4) was > 10 µM (inactive) and the GI50 (Malme-3M) was 1.88 µM (inactive). For the same compound, the GI50 (NCI-H226) was > 10 µM (inactive), the GI50 (NCI-H23) was > 10 µM (inactive) and the GI50 (NCI-H460) was 7.46 µM (inactive). For the same compound, the GI50 (NCI-H522) was > 10 µM (inactive), the GI50 (NCI/ADR-RES) was 3.76 µM (inactive) and the GI50 (OVCAR-3) was 4.8 µM (inactive). For the same compound, the GI50 (OVCAR-4) was > 10 µM (inactive), the GI50 (OVCAR-5) was > 10 µM (inactive) and the GI50 (OVCAR-8) was > 10 µM (inactive). The GI50 (PC-3) was > 10 µM (inactive), the GI50 (RPMI-8226) was > 10 µM (inactive) and the GI50 (SF-268) was 9.12 µM (inactive). For the same compound, the GI50 (SF-295) was 9.82 µM (inactive), the GI50 (SF-539) was 6.58 µM (inactive) and the GI50 (SK-MEL-2) was 8.28 µM (inactive). For the same compound, the GI50 (SK-MEL-5) was 3.72 µM (inactive), the GI50 (SK-OV-3) was > 10 µM (inactive) and the GI50 (SN12C) was > 10 µM (inactive). The GI50 (SNB-19) was > 10 µM (inactive), the GI50 (SNB-75) was > 10 µM (inactive) and the GI50 (SW-620) was > 10 µM (inactive). For the same compound, the GI50 (T47D) was > 10 µM (inactive), the GI50 (TK-10) was > 10 µM (inactive) and the GI50 (U-251) was > 10 µM (inactive). For the same compound, the GI50 (UACC-257) was 4.74 µM (inactive) and the GI50 (UACC-62) was 3.74 µM (inactive).
